Data set [1] relates to Staphylococcus aureus. As to the kind of experiment: Tested for inhibition of visible growth of Staphylococcus aureus, benzyl-penicillin sensitive. The data set is classed as functional.
Data set [2] is described as follows: Tested for inhibition of visible growth of Salmonella schottmuelleri. The data set is classed as functional.
Data set [3] relates to Streptococcus pneumoniae. Put plainly: Tested for inhibition of visible growth of Streptococcus pneumoniae. The data set is classed as functional.
The subject of another data set is Enterococcus faecalis. As to the kind of experiment: Tested for inhibition of visible growth of Streptococcus faecalis. The data set is classed as functional.
Data set [4] deals with Escherichia coli. As to the kind of experiment: Tested for inhibition of visible growth of Escherichia coli. The data set is classed as functional.
The subject of the next data set is Proteus mirabilis. Put plainly: Tested for inhibition of visible growth of Proteus mirabilis. The data set is classed as functional.
A further data set has as its system Klebsiella aerogenes. As to the kind of experiment: Tested for inhibition of visible growth of Enterobacter aerogenes. The data set is classed as functional.
The test system of data set [5] is Streptococcus pyogenes. As to the kind of experiment: Tested for inhibition of visible growth of Streptococcus pyogenes. The data set is classed as functional.
The subject of the next data set is Klebsiella pneumoniae. Put plainly: Tested for inhibition of visible growth of Klebsiella pneumoniae. The data set is classed as functional.
The test system of data set [6] is Staphylococcus aureus. Put plainly: Tested for inhibition of visible growth of Staphylococcus aureus. The data set is classed as functional.
The next data set in a line: in vivo. The settings on record: mouse, po, 43 mg/kg.
For the next data set, the system named is Enterobacter cloacae. As to the kind of experiment: Tested for inhibition of visible growth of Enterobacter cloacae. The data set is classed as functional.
The species named for the next data set is Mus musculus. Put plainly: Tested for the antimicrobial activity against Staphylococcus aureus, benzyl-penicillin resistant in mice, perorally. The data set is classed as functional. The settings on record: po.
Data set [7] in a line: (§1) Tested for the antimicrobial activity against Salmonella schottmuelleri in mice. The data set is classed as functional.
Data set [8] in a line: as §1. The data set is classed as functional. This is another data set of the same source.
Data set [9] relates to Streptococcus pneumoniae. Put plainly: (§2) Tested for the antimicrobial activity against Streptococcus pneumoniae in mice. The data set is classed as functional.
The subject of data set [10] is Escherichia coli. Put plainly: Tested for the antimicrobial activity against Escherichia coli in mice perorally. The data set is classed as functional. The settings on record: po.
Data set [11] deals with Streptococcus pneumoniae. The description is as §2. The data set is classed as functional. The source holds these as a separate data set.
The test system of data set [12] is Streptococcus pyogenes. Put plainly: (§3) Tested for the antimicrobial activity against Streptococcus pyogenes in mice. The data set is classed as functional.
Data set [13] deals with Staphylococcus aureus. As to the kind of experiment: Tested for the antimicrobial activity against Staphylococcus aureus. The data set is classed as functional.
The subject of data set [14] is Escherichia coli. As to the kind of experiment: Tested for the antimicrobial activity against Escherichia coli in mice. The data set is classed as functional.
In data set [15] the test system is Streptococcus pyogenes. The description is as §3. The data set is classed as functional. The source holds these as a separate data set.
A short description of data set [16]: Tested for the peak time in mice following 40 mg/kg oral dose of cephalosporin. The data set is classed as ADME, organism-based. Set-up: dose 40 mg/kg, route oral. The settings on record: mouse, in vivo, read-out: Peak time (converted).
Data set [17] has as its system Staphylococcus aureus. Put plainly: Tested for the antimicrobial activity against Staphylococcus aureus, benzyl-penicillin sensitive in mice, perorally. The data set is classed as functional. The settings on record: po.
Data set [18] in a line: Tested for the peak time in mice following 12.5 mg/kg oral dose of cephalosporin. The data set is classed as ADME, organism-based. More on the design: dose 12.5 mg/kg, route oral. The settings on record: mouse, in vivo, read-out: Peak time (converted).

The results in this text go back to ChEMBL document CHEMBL1121424, “Orally active cephalosporins and penicillins” (J Med Chem, 1980).

Converted amounts (≈) assume the structure as drawn.

Description for in vivo: Tested for the peak time in mice following 43 mg/kg oral dose of cephalosporin

For the compound `CC1=C(C(=O)O)N2C(=O)[C@@H](NC(=O)[C@H](N)c3ccccc3)[C@H]2SC1` [CEPHALEXIN ANHYDROUS], the MIC – broadly, the smallest concentration in the dilution series that meets the test's criterion for growth inhibition – in the data set on Staphylococcus aureus [1] is 0.8 µg/mL (≈ 2.3 µM); in data set [2], 3.1 µg/mL (≈ 8.92 µM); in the data set on Streptococcus pneumoniae [3] it was 1.6 µg/mL (≈ 4.61 µM); against Enterococcus faecalis, at least 100 µg/mL; against Escherichia coli [4], 6.2 µg/mL (≈ 17.8 µM); against Proteus mirabilis it was 12.5 µg/mL (≈ 36 µM). The MIC in the data set on Klebsiella aerogenes stood at 25 µg/mL (≈ 72 µM); in the data set on Streptococcus pyogenes [5], 0.4 µg/mL (≈ 1.15 µM); against Klebsiella pneumoniae it was 3.1 µg/mL (≈ 8.92 µM); in the data set with Staphylococcus aureus [6], 3.1 µg/mL (≈ 8.92 µM); against Enterobacter cloacae, 25 µg/mL (≈ 72 µM). In addition, the Tmax in the data set “in vivo” is 15 min.

Turning to `CC1=C(C(=O)O)N2C(=O)C(NC(=O)[C@H](N)c3ccc4c(c3)OCO4)C2SC1` (some centres not stated), the ED50 (commonly the midpoint of the dose-response relation) in the data set listed under Mus musculus is 3.1 mg/kg; in [7], 37 mg/kg; in [8] it was 33 mg/kg; in the data set with Streptococcus pneumoniae [9] it was 26 mg/kg; in the data set with Escherichia coli [10], 28 mg/kg; in the data set with Streptococcus pneumoniae [11], 19 mg/kg. Also, the ED50 with Streptococcus pyogenes [12] came to 1.4 mg/kg; in the data set on Staphylococcus aureus [13] it was 0.45 mg/kg; in the data set on Escherichia coli [14] it was 15 mg/kg; with Streptococcus pyogenes [15], 1 mg/kg; in the data set on Staphylococcus aureus [17], 0.61 mg/kg. Also, the MIC against Staphylococcus aureus [1] was 0.4 µg/mL (≈ 1.02 µM); in data set [2], 12.5 µg/mL (≈ 31.9 µM); in the data set on Streptococcus pneumoniae [3], 1.6 µg/mL (≈ 4.09 µM); in the data set with Enterococcus faecalis, over 100 µg/mL; in the data set with Escherichia coli [4], 25 µg/mL (≈ 63.9 µM); against Proteus mirabilis it was over 100 µg/mL. For the same compound, the MIC against Klebsiella aerogenes is over 100 µg/mL; with Streptococcus pyogenes [5] it was 0.8 µg/mL (≈ 2.04 µM); with Klebsiella pneumoniae, 25 µg/mL (≈ 63.9 µM); against Staphylococcus aureus [6], 3.1 µg/mL (≈ 7.92 µM); in the data set on Enterobacter cloacae, over 100 µg/mL. Besides, the Tmax in data set [16] was 10 min.

As for `N[C@@H](C(=O)NC1C(=O)N2C(C(=O)O)=C(CSc3c[nH]nn3)CSC12)c1ccc2c(c1)OCO2` (some centres not stated), the MIC with Staphylococcus aureus [1] turned out to be 0.4 µg/mL (≈ 0.815 µM); in data set [2] it was 1.6 µg/mL (≈ 3.26 µM); in the data set with Streptococcus pneumoniae [3], 0.2 µg/mL (≈ 0.408 µM); in the data set on Enterococcus faecalis, 50 µg/mL (≈ 102 µM); with Escherichia coli [4], 12.5 µg/mL (≈ 25.5 µM); with Proteus mirabilis it was 50 µg/mL (≈ 102 µM). The minimum inhibitory concentration (MIC) in the data set with Klebsiella aerogenes was 50 µg/mL (≈ 102 µM); in the data set on Streptococcus pyogenes [5], 0.2 µg/mL (≈ 0.408 µM); against Klebsiella pneumoniae it was 3.1 µg/mL (≈ 6.32 µM); against Staphylococcus aureus [6], 0.8 µg/mL (≈ 1.63 µM); against Enterobacter cloacae, 50 µg/mL (≈ 102 µM). Besides, the ED50 in data set [7] worked out at 12.5 mg/kg; in data set [8], 8.1 mg/kg; with Streptococcus pneumoniae [9] it was 4.1 mg/kg; with Escherichia coli [10], 24.8 mg/kg; with Streptococcus pneumoniae [11], 5 mg/kg; in the data set on Streptococcus pyogenes [12] it was 0.32 mg/kg. For the same compound, the ED50 was determined as 0.13 mg/kg in the data set on Staphylococcus aureus [13], 9.1 mg/kg with Escherichia coli [14], 0.41 mg/kg in the data set with Streptococcus pyogenes [15] and 0.7 mg/kg in the data set on Staphylococcus aureus [17]. The Tmax in [18] was 20 min.
